Results as given in patent US20200179308A1, “USE OF ISOHUMULONES AND DERIVATIVES THEREOF TO TREAT POLYCYSTIC OVARY SYNDROME” (KINDEX PHARMACEUTICALS, INC., priority 2017, published 2020).
Values joined by “and” are separate entries in the source; they are usually repeats but may differ in a detail not shown here. Identical values can stand only once. “Also recorded” adds a separate entry of the source.

Columns and labels:
Type in all cases: in vivo
[1] = test system: DIO female mice; test: Liver lipid accumulation, H&E staining quantified with ImageJ
Procedure: Liver tissues were collected and placed immediately in 10% formalin. 5 μm sections of tissue were stained with H&E by the Johns Hopkins Molecular and Comparative Pathobiology Phenotyping Core. Quantification of the area of fat in liver tissue was measured with NIH imageJ software and compared across groups.

[2] = test system: DIO female mice; test: Insulin tolerance test (ITT), whole body insulin sensitivity
Procedure: (§1) To begin to assess the effects of drug treatment on glucose metabolism in female DIO mice, IP-glucose tolerance test (IP-GTT) was performed. One month after drug treatment, mice were tested for glucose tolerance by IP-GTT. The mice were fasted overnight for 16 hours, blood was drawn through the tail vein and baseline blood glucose was measured using a OneTouch Ultra glucometer. 20% dextrose was injected IP (2 g/kg body weight). Sample blood glucose was measured at 15, 30, 60, 90 and 120 minutes. One week after IP-GTT, the mice were tested for whole body insulin sensitivity by insulin tolerance test (ITT). Mice were fasted for seven hours, blood was drawn through the tail vein and baseline blood glucose was measured as above. 0.3 units/kg insulin was injected IP. Blood glucose of each mouse were measured at 15, 30, 60, 90 and 120 minutes. Area under the curve (AUC) was calculated for both the IP-GTT and the ITT.

[3] = test system: DIO female mice; test: Estrous cyclicity by vaginal cytology over 15 consecutive days; conditions: for percent of mice acyclic (did not complete even 1 complete estrous cycle): 15 day period beginning 10 days after treatment
Procedure: Diet-induced obesity has been reported to impair estrous cyclicity in female mice (Brothers et al., Wu et al.). In these studies, DIO females were treated with KDT501, PIO or VEH beginning 8 weeks after change to high fat diet. Mice were assessed for estrous cycle stage for 15 consecutive days beginning 10 days after drug/VEH treatment. Vaginal cytology was assessed daily between 9 and 10 am for 15 consecutive days beginning the 10th days after drug treatment. Vaginal cells were collected via saline lavage and then fixed with 100% ethanol and stained with the DIFF Quick Stain Kit (IMEB Inc., San Marcos, Calif., USA). Stages were assessed based on vaginal cytology (Nelson et al. 1982): predominant cornified epithelium indicated the estrus stage, predominant nucleated cells indicated the proestrus stage, both cornified and leukocytes indicated the metestrus stage, and predominant leukocytes indicated the diestrus stage. The percentage of mice at each different cycle stage in each group was calculated.

[4] = test system: DIO female mice; test: Fasting serum insulin, leptin and IL-6 by Luminex assay; conditions: between VEH, KDT501 and PIO groups
Procedure: (§2) To measure serum levels of LH, FSH, insulin, and leptin, serum samples were collected from mice via mandibular bleed. Mice were fasted overnight, and insulin or saline was injected IP according to the body weight of the mice (0.3 units/kg). Samples were obtained between 9:00 and 10:00 am on diestrus for baseline LH and FSH so as to avoid cycle dependent LH surges that occur in the late afternoon on the evening of proestrus. Rodent morning LH levels are not thought to vary in a cycle dependent manner (Helena et al. 2006). For fasting measurements of insulin, samples were also obtained between 9:00 and 10:00 am. Tissues were collected 10 minutes after insulin injection and snap-frozen in liquid nitrogen. Protein was obtained and measured as described previously (Brothers et al. 2010). To quantify the levels of phosphorylated AKT (pAKT), and AKT for different tissues of each individual animal after insulin or saline injection, Bio-Plex Phosphoprotein Detection Multiplex assays were used (Bio-Rad Laboratories, Hercules, Calif.). Protein ([…]) from each tissue was loaded into a 96-well microplate. Assays were conducted using the Luminex 200 system. Values were assessed as mean fluorescent intensity of phospho-specific signal. Serum was analyzed on a Luminex 20015 platform using the Milliplex Map mouse pituitary panel (LH/FSH) and a Milliplex mouse metabolic panel (insulin/leptin; Millipore, Billerica, Mass., USA). The assay detection limit for LH was 0.0019 ng/mL; for FSH, 0.0095 ng/mL; for insulin, 13.0 pg/mL; and for leptin, 4.2 pg/mL. Serum Testosterone was measured by radioimmunoassay at the University of Virginia Ligand Assay Core.

[5] = Weight gain on high fat diet in DIO female mice; conditions: female mice on 60% HFD; oral once a day; KDT501 100 mg/kg, PIO 30 mg/kg; compared to VEH
Excerpt: To generate DIO mice, 7 week old female mice on a mixed strain background (129SvJ, C57B16, CD1) were placed and maintained on a high fat diet (HFD) for 8 weeks prior to study and throughout the course of study. The high fat diet consisted of 60% Kcal from fat with an energy density of 5.24 kcal/gm (D12492, Research Diets, Inc., New Brunswick, N.J., USA).
Wood chip bedding was maintained in these cages so that mice would not supplement their diet by eating the standard corncob bedding. Mice were weighed every week. The regular chow diet (Tekland Global 18% protein diet) was 24% Kcal from protein, 58% Kcal from carbohydrate, and 18% Kcal from fat with an energy density of 3.1 kcal/g (Harlan Laboratories, Indianapolis, Ind., USA). All procedures were performed with approval by the Johns Hopkins Animal Care and Use Committee under standard light and dark cycles.
At 80 days after introduction to high fat diet, the test compounds were administered orally to the mice once a day. […]
Female mice fed a high fat diet (60% calories from fat) gained approximately 4 grams of weight during the 8 week study period (FIG. 1). […] All data were analyzed with using Prism Software 5 GraphPad Software (La Jolla, CA) and are expressed as means ±SEM. Significance was determined via unpaired two- tailed Student t-test, one- or two-way ANOVA with the appropriate post-hoc tests. […]

[6] = test system: DIO female mice; test: IP-glucose tolerance test (IP-GTT); conditions: one month after drug treatment, relative to VEH
Procedure: as §1

[7] = test system: DIO female mice; test: Serum pituitary gonadotropin (LH, FSH) levels, Luminex Milliplex mouse pituitary panel; conditions: KDT501 100 mg/kg, PIO 30 mg/kg oral once a day, compared to VEH
Procedure: as §2

[8] = 15 day period, KDT501 100 mg/kg, PIO 30 mg/kg

Row | Compound | fat / lipid accumulation in liver, KDT501 versus PIO ([1]; KDT501 100 mg/kg compared to PIO 30 mg/kg) | fat / lipid accumulation in liver ([1]; KDT501 100 mg/kg, PIO 30 mg/kg, relative to VEH) | insulin sensitivity, ITT area under the curve (AUC) ([2]; 0.3 units/kg insulin IP, relative to VEH) | fasting glucose levels (7 hrs fasting) ([2]; before insulin injection, compared to VEH controls) | percent of mice acyclic (did not complete even 1 complete estrous cycle) ([3]; KDT501 100 mg/kg, PIO 30 mg/kg) [%] | percentage of mice that completed 3 complete estrous cycles [3, 8] | percentage of mice that had (at least) two complete estrous cycles [3, 8] | percentage of mice that had one complete estrous cycle [3, 8] | number of complete estrous cycles per mouse ([3]; 15 days of analysis, compared to VEH) | fasting serum IL-6 level [4] | fasting serum insulin level [4] | fasting serum leptin level [4] | weight gain (Δ weight from week 0) over the 8 week study period [5] | glucose tolerance (blood glucose after IP dextrose) ([6]; 16 h fast, 2 g/kg dextrose IP) | glucose tolerance, IP-GTT area under the curve (AUC) [6] | morning serum FSH level [7] | morning serum LH level [7] | ratio of LH/FSH [7]
1 | CC(C)CCC(=O)[C@@]1(O)C([O-])=C(C(=O)CC(C)C)C(=O)[C@@H]1CCC(C)C.[K+] [KDT501, Potassium salt of (+)-KDT500] | significantly less lipid accumulation; also recorded: significantly less fat | significantly less lipid accumulation; also recorded: significant reduction in fat | improved insulin sensitivity | lower fasting glucose levels | 7.1 | 20% | 60% | Roughly an even percentage | significantly more complete estrous cycles; also recorded: significant increase in number of cycles/mouse | not significantly different; also recorded: No significant differences | not significantly different; also recorded: No significant differences | not significantly different; also recorded: No significant differences | no weight gain; also recorded: attenuated weight gain | improved glucose tolerance | significant improvement in glucose tolerance | not significantly altered | not significantly altered | no significant difference
2 | CCc1ccc(CCOc2ccc(CC3SC(=O)NC3=O)cc2)nc1 (stereo not drawn) [PIO, Pioglitazone, reference compound] |  |  |  |  | 20 | 21% and 28% | 25-28% |  |  |  |  |  |  |  |  |  |  | 
